System: RNAi-treated eri-1 (mg366) nematodes
Assay: RNAi screening of olfactory receptor genes: chemotaxis assay of RNAi-treated nematodes to odorants
Format: in vivo, Caenorhabditis elegans
Conditions: repellent or high concentration of attractant
Method in brief: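 Chemotaxis of adult RNAi-fed eri-1 (mg366) nematodes (30–50 per test) was measured toward low (1 μl, 10^−3 or 10^−4 dilution) or high (1 and 5 μl neat) odorant doses. Knockdown: 4 days feeding on E. coli from Ahringer library with IPTG and ampicillin. Differences called by z score at ±1.96, weaker cutoff ±0.96.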

CCCCCCCCO [octanol]
chemotaxis index (Control nematodes): −0.68 ± 0.018
chemotaxis index (srh-4 RNAi-treated nematodes): −0.17
chemotaxis index (srh-7 RNAi-treated nematodes): −0.65
chemotaxis index (srh-8 RNAi-treated nematodes): −0.80
chemotaxis index (srh-10 RNAi-treated nematodes): −0.45
chemotaxis index (srh-11 RNAi-treated nematodes): −0.19
chemotaxis index (srh-15 RNAi-treated nematodes): −0.85
chemotaxis index (srh-16 RNAi-treated nematodes): −0.89
chemotaxis index (srh-18 RNAi-treated nematodes): −0.65
chemotaxis index (srh-19 RNAi-treated nematodes): −0.33
chemotaxis index (srh-22 RNAi-treated nematodes): −0.48
chemotaxis index (srh-23 RNAi-treated nematodes): −0.90
chemotaxis index (srh-24 RNAi-treated nematodes): −0.56
chemotaxis index (srh-25 RNAi-treated nematodes): −0.90
chemotaxis index (srh-27 RNAi-treated nematodes): −0.68
chemotaxis index (srh-28 RNAi-treated nematodes): −0.73
chemotaxis index (srh-36 RNAi-treated nematodes): −0.72
chemotaxis index (srh-37 RNAi-treated nematodes): −0.88
chemotaxis index (srh-39 RNAi-treated nematodes): −0.50
chemotaxis index (srh-40 RNAi-treated nematodes): −0.92
chemotaxis index (srh-41 RNAi-treated nematodes): −0.80
chemotaxis index (srh-44 RNAi-treated nematodes): −0.52
chemotaxis index (srh-45 RNAi-treated nematodes): −0.87
chemotaxis index (srh-46 RNAi-treated nematodes): −0.87
chemotaxis index (srh-48 RNAi-treated nematodes): −0.83
chemotaxis index (srh-49 RNAi-treated nematodes): −0.57
chemotaxis index (srh-50 RNAi-treated nematodes): −0.89
chemotaxis index (srh-51 RNAi-treated nematodes): −0.89
chemotaxis index (srh-52 RNAi-treated nematodes): −0.79
chemotaxis index (srh-55 RNAi-treated nematodes): −0.95
chemotaxis index (srh-59 RNAi-treated nematodes): −0.55
chemotaxis index (srh-60 RNAi-treated nematodes): −0.52
chemotaxis index (srh-61 RNAi-treated nematodes): −0.77
chemotaxis index (srh-67 RNAi-treated nematodes): −0.66
chemotaxis index (srh-68 RNAi-treated nematodes): −0.79
chemotaxis index (srh-69 RNAi-treated nematodes): −0.61
chemotaxis index (srh-70 RNAi-treated nematodes): −0.80
chemotaxis index (srh-71 RNAi-treated nematodes): −0.60
chemotaxis index (srh-72 RNAi-treated nematodes): −0.62
chemotaxis index (srh-74 RNAi-treated nematodes): −0.89
chemotaxis index (srh-75 RNAi-treated nematodes): −0.59
chemotaxis index (srh-77 RNAi-treated nematodes): −0.31
chemotaxis index (srh-79 RNAi-treated nematodes): −0.17
chemotaxis index (srh-80 RNAi-treated nematodes): −0.39
chemotaxis index (srh-82 RNAi-treated nematodes): −0.65
chemotaxis index (srh-83 RNAi-treated nematodes): −0.33
chemotaxis index (srh-97 RNAi-treated nematodes): −0.64
chemotaxis index (srh-99 RNAi-treated nematodes): −0.61
chemotaxis index (srh-100 RNAi-treated nematodes): −0.46
chemotaxis index (srh-104 RNAi-treated nematodes): −0.36
chemotaxis index (srh-105 RNAi-treated nematodes): −0.61
chemotaxis index (srh-109 RNAi-treated nematodes): −0.91
chemotaxis index (srh-111 RNAi-treated nematodes): −0.44
chemotaxis index (srh-113 RNAi-treated nematodes): −0.43
chemotaxis index (srh-115 RNAi-treated nematodes): −0.82
chemotaxis index (srh-116 RNAi-treated nematodes): −0.82
chemotaxis index (srh-118 RNAi-treated nematodes): −0.37
chemotaxis index (srh-119 RNAi-treated nematodes): −0.35
chemotaxis index (srh-120 RNAi-treated nematodes): −0.37
chemotaxis index (srh-122 RNAi-treated nematodes): −0.61
chemotaxis index (srh-123 RNAi-treated nematodes): −0.32
chemotaxis index (srh-125 RNAi-treated nematodes): −0.56
chemotaxis index (srh-128 RNAi-treated nematodes): −0.47
chemotaxis index (srh-129 RNAi-treated nematodes): −0.56
chemotaxis index (srh-130 RNAi-treated nematodes): −0.68
chemotaxis index (srh-131 RNAi-treated nematodes): −0.49
chemotaxis index (srh-132 RNAi-treated nematodes): −0.19
chemotaxis index (srh-139 RNAi-treated nematodes): −0.73
chemotaxis index (srh-140 RNAi-treated nematodes): −0.78
chemotaxis index (srh-141 RNAi-treated nematodes): −0.49
chemotaxis index (srh-142 RNAi-treated nematodes): −0.59
chemotaxis index (srh-145 RNAi-treated nematodes): −0.64
chemotaxis index (srh-148 RNAi-treated nematodes): −0.67
chemotaxis index (srh-154 RNAi-treated nematodes): −0.65
chemotaxis index (srh-159 RNAi-treated nematodes): −0.79
chemotaxis index (srh-165 RNAi-treated nematodes): −0.49
chemotaxis index (srh-166 RNAi-treated nematodes): −0.74
chemotaxis index (srh-167 RNAi-treated nematodes): −0.28
chemotaxis index (srh-169 RNAi-treated nematodes): −0.62
chemotaxis index (srh-174 RNAi-treated nematodes): −0.45
chemotaxis index (srh-179 RNAi-treated nematodes): −0.60
chemotaxis index (srh-182 RNAi-treated nematodes): −0.86
chemotaxis index (srh-186 RNAi-treated nematodes): −0.64
chemotaxis index (srh-190 RNAi-treated nematodes): −0.64
chemotaxis index (srh-193 RNAi-treated nematodes): −0.92
chemotaxis index (srh-195 RNAi-treated nematodes): −0.47
chemotaxis index (srh-201 RNAi-treated nematodes): −0.93
chemotaxis index (srh-203 RNAi-treated nematodes): −0.95
chemotaxis index (srh-204 RNAi-treated nematodes): −0.90
chemotaxis index (srh-206 RNAi-treated nematodes): −0.94
chemotaxis index (srh-207 RNAi-treated nematodes): −0.81
chemotaxis index (srh-208 RNAi-treated nematodes): −0.60
chemotaxis index (srh-209 RNAi-treated nematodes): −0.85
chemotaxis index (srh-210 RNAi-treated nematodes): −0.77
chemotaxis index (srh-214 RNAi-treated nematodes): −0.98
chemotaxis index (srh-216 RNAi-treated nematodes): −0.68
chemotaxis index (srh-217 RNAi-treated nematodes): −0.82
chemotaxis index (srh-220 RNAi-treated nematodes): −0.47
chemotaxis index (srh-222 RNAi-treated nematodes): −0.77
chemotaxis index (srh-223 RNAi-treated nematodes): −0.75

— patent US12493040B2, “Cancer detection method using sense of smell of nematode” (HIROTSU BIO SCIENCE INC., priority 2013, dated 2025)
